Experimental data taken from patent US20250230193A1, “CYCLIC COMPOUND HAVING SELECTIVE KRAS INHIBITORY EFFECT ON HRAS AND NRAS” (CHUGAI SEIYAKU KABUSHIKI KAISHA, priority 2022, published 2025).
*1 amine or outer side, *2 acyl side, *3 side chain or, on linkers, in order; H or OH if unused. Where a SMILES comes first, the peptide text is derived from it. Bridges are numbered along the chain shown (N, C = ends). [ ]: non-standard residue; d: D form. The star is where a group is joined. hPhe(3-Cl-4-CF3) = N[C@@H](CCc1ccc(C(F)(F)F)c(Cl)c1)C(=O)O; X31 = O=C([C@H](Cc1ccc(C(F)(F)F)cc1)N(CC1CC1)[*:1])[*:2]; NPrPhe(4-CF3) = CCCN[C@@H](Cc1ccc(C(F)(F)F)cc1)C(=O)O; NMeGly(cPent) = CN[C@H](C(=O)O)C1CCCC1; cisHyp = O=C(O)[C@@H]1C[C@H](O)CN1; NMeD = CN[C@@H](CC(=O)O)C(=O)O; NMeL = CN[C@@H](CC(C)C)C(=O)O; Morpholide = C1CN(*)CCO1; NMeA = CN[C@@H](C)C(=O)O; Ac5c = NC1(C(=O)O)CCCC1; Aze = O=C(O)[C@@H]1CCN1; Sar = CNCC(=O)O

Tests used:
[1] = molecular target: GDP-bound NRAS wild-type protein (Homo sapiens, UniProt P01111); test: Binding to NRAS by surface plasmon resonance (SPR), Single Cycle Kinetics; conditions: SPR; for NRAS/KRAS (ratio of KD value with respect to NRAS to KD value with respect to KRAS) / NRAS/KRAS (ratio of KD value for NRAS to KD value for KRAS): GDP-bound NRAS wild-type vs GDP-bound KRAS wild-type
Chain of GDP-bound NRAS wild-type protein (P01111 whole entry): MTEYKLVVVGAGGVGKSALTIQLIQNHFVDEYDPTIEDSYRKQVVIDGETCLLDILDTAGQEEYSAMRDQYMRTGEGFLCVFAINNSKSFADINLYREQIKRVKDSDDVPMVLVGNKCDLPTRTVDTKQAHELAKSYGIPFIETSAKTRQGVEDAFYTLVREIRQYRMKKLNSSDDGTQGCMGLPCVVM

[2] = molecular target: GDP-bound HRAS wild-type protein (Homo sapiens, UniProt P01112); test: Binding to HRAS by surface plasmon resonance (SPR), Single Cycle Kinetics; conditions: SPR; for HRAS/KRAS (ratio of KD value with respect to HRAS to KD value with respect to KRAS) / HRAS/KRAS (ratio of KD value for HRAS to KD value for KRAS): GDP-bound HRAS wild-type vs GDP-bound KRAS wild-type
Chain of GDP-bound HRAS wild-type protein (P01112 whole entry): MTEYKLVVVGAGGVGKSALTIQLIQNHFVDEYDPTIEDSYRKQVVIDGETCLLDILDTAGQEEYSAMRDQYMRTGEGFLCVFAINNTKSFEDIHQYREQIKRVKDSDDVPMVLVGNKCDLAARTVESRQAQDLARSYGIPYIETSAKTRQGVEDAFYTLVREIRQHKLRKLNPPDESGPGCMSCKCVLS

CCCCO[C@@H]1C[C@H]2C(=O)NC3(CCC3)C(=O)N(C)[C@@H](C3CCCC3)C(=O)N(C)[C@H](C(=O)N3CCOCC3)CC(=O)N(C)[C@@H](CC(C)C)C(=O)N[C@@H]([C@@H](C)CC)C(=O)N(C)CC(=O)N(C)[C@H]3CCCCN(C3=O)[C@@H](Cc3ccc(C(F)(F)F)cc3)C(=O)N(C)CC(=O)N[C@@H](CCc3cc(F)c(C(F)(F)F)c(F)c3)C(=O)N2C1 [PP0999]
NRAS/KRAS (ratio of KD value with respect to NRAS to KD value with respect to KRAS) ([1]; KD ratio): C (A compound having a KD ratio of 0.1 or more and less than 3 is denoted as C)
HRAS/KRAS (ratio of KD value with respect to HRAS to KD value with respect to KRAS) ([2]; KD ratio): B (a compound having 3 or more and less than 10 is denoted as B)

CCO[C@@H]1C[C@H]2C(=O)NC3(CC(C)(C)C3)C(=O)N(C)[C@@H](C(CC)CC)C(=O)N(C)[C@H](C(=O)N(C)C)CC(=O)N(C)[C@@H](C(C)C)C(=O)N[C@@H]([C@@H](C)CC)C(=O)N(C)CC(=O)N(C)[C@H]3C/C=C\CCN(C3=O)[C@@H](Cc3ccc(C(F)(F)F)cc3)C(=O)N(C)CC(=O)N[C@@H](CCc3ccc(Cl)c(Cl)c3)C(=O)N2C1 [PP2181]
NRAS/KRAS (ratio of KD value with respect to NRAS to KD value with respect to KRAS) [1]: AA (a compound having 20 or more is denoted as AA)
HRAS/KRAS (ratio of KD value with respect to HRAS to KD value with respect to KRAS) [2]: A (a compound having 10 or more and less than 20 is denoted as A)

CC[C@H](C)[C@@H]1NC(=O)[C@H](CC(C)C)N(C)C(=O)C[C@@H](C(=O)N2CCOCC2)N(C)C(=O)[C@H](C2CCCC2)N(C)C(=O)C2(CCCC2)NC(=O)[C@@H]2CCCN2C(=O)[C@H](CCc2ccc(C(F)(F)F)c(Cl)c2)NC(=O)CN(C)C(=O)[C@H](Cc2ccc(OC)cc2)N2C/C=C\CC[C@@H](C2=O)N(C)C(=O)CN(C)C1=O [PP0609]
NRAS/KRAS (ratio of KD value with respect to GDP-bound NRAS wild-type protein to KD value with respect to KRAS) [1]: B (a compound having 3 or more and less than 10 is denoted as B)
HRAS/KRAS (ratio of KD value with respect to GDP-bound HRAS wild-type protein to KD value with respect to KRAS) [2]: B (a compound having 3 or more and less than 10 is denoted as B)

CC[C@H](C)[C@@H]1NC(=O)[C@H](CC(C)C)N(C)C(=O)C[C@@H](C(=O)N2CCOCC2)N(C)C(=O)[C@H](C2CCCC2)N(C)C(=O)C2(COC2)NC(=O)[C@@H]2CCCN2C(=O)[C@H](CCc2cc(F)c(C(F)(F)F)c(F)c2)NC(=O)CN(C)C(=O)[C@H](Cc2ccc(C(F)(F)F)cc2)N2CCCCC[C@@H](C2=O)N(C)C(=O)CN(C)C1=O [PP0501]
NRAS/KRAS (ratio of KD value with respect to GDP-bound NRAS wild-type protein to KD value with respect to KRAS) [1]: B (a compound having 3 or more and less than 10 is denoted as B)
HRAS/KRAS (ratio of KD value with respect to GDP-bound HRAS wild-type protein to KD value with respect to KRAS) [2]: B (a compound having 3 or more and less than 10 is denoted as B)

CCCN1C(=O)CN(C)C(=O)CN(C)C(=O)[C@H]([C@@H](C)CC)NC(=O)[C@H](CC(C)C)N(C)C(=O)C[C@@H](C(=O)N2CCOCC2)N(C)C(=O)[C@H](C2CCCC2)N(C)C(=O)C2(CCCC2)NC(=O)[C@@H]2C[C@H](OCC)CN2C(=O)[C@H](CCc2ccc(C(F)(F)F)c(Cl)c2)NC(=O)CN(C)C(=O)[C@@H]1Cc1ccc(C(F)(F)F)cc1 [PP0243] ([NMeL]I[Sar][Sar][NPrPhe(4-CF3)][Sar][hPhe(3-Cl-4-CF3)][cisHyp](Et)[Ac5c][NMeGly(cPent)][NMeD]-Morpholide; lactam N-11)
NRAS/KRAS (ratio of KD for GDP-bound NRAS wild-type to KD for KRAS) [1]: B (a compound having 3 or more and less than 10 is denoted as B)
HRAS/KRAS (ratio of KD for GDP-bound HRAS wild-type to KD for KRAS) [2]: C (A compound having a KD ratio of 0.1 or more and less than 3 is denoted as C)

CCO[C@@H]1C[C@H]2C(=O)NC3(CC(C)(C)C3)C(=O)N(C)[C@@H](C3CCCC3)C(=O)N(C)[C@H](C(=O)N(C)C)CC(=O)N(C)[C@@H](CC(C)C)C(=O)N[C@@H]([C@@H](C)CC)C(=O)N(C)CC(=O)N(C)[C@H]3C/C=C\CCN(C3=O)[C@@H](Cc3ccc(C(F)(F)F)cc3)C(=O)N(C)CC(=O)N[C@@H](CCc3ccc(C(F)(F)F)c(F)c3)C(=O)N2C1 [PP1931]
NRAS/KRAS (ratio of KD value for NRAS to KD value for KRAS) ([1]; KD ratio): A (a compound having 10 or more and less than 20 is denoted as A)
HRAS/KRAS (ratio of KD value for HRAS to KD value for KRAS) ([2]; KD ratio): B (a compound having 3 or more and less than 10 is denoted as B)

CCC[C@H]1C(=O)N[C@@H](C2CCC2)C(=O)N(C)CC(=O)N(C)[C@H]2C/C=C\CCN(C2=O)[C@@H](Cc2ccc(C)cc2)C(=O)N(C)CC(=O)N[C@@H](CCc2ccc(C(F)(F)F)c(F)c2)C(=O)N2C[C@H](OCC)C[C@H]2C(=O)NC2(CC(C)(C)C2)C(=O)N(C)[C@@H](C2CCC2)C(=O)N(C)[C@H](C(=O)N(C)C)CC(=O)N1C [PP2242]
NRAS/KRAS (ratio of KD value with respect to NRAS to KD value with respect to KRAS) [1]: A (a compound having 10 or more and less than 20 is denoted as A)
HRAS/KRAS (ratio of KD value with respect to HRAS to KD value with respect to KRAS) [2]: A (a compound having 10 or more and less than 20 is denoted as A)

CCCN(C)C(=O)[C@@H]1CC(=O)N(C)[C@@H](COC)C(=O)N[C@@H]([C@@H](C)CC)C(=O)N(C)CC(=O)N(C)[C@H]2C/C=C\CCN(C2=O)[C@@H](Cc2ccc(C(F)(F)F)cc2)C(=O)N(C)CC(=O)N[C@@H](CCc2cc(F)c(C(F)(F)F)c(F)c2)C(=O)N2C[C@H](F)C[C@H]2C(=O)NC2(CC(C)(C)C2)C(=O)N(C)[C@@H](C2CCCC2)C(=O)N1C [PP1696]
NRAS/KRAS (ratio of KD value for NRAS to KD value for KRAS) ([1]; KD ratio): AA (a compound having 20 or more is denoted as AA)
HRAS/KRAS (ratio of KD value for HRAS to KD value for KRAS) ([2]; KD ratio): A (a compound having 10 or more and less than 20 is denoted as A)

CC[C@H](C)[C@@H]1NC(=O)[C@H](CC(C)C)N(C)C(=O)C[C@@H](C(=O)N2CCOCC2)N(C)C(=O)[C@H](C2CCCC2)N(C)C(=O)C2(CCCC2)NC(=O)[C@@H]2CCCN2C(=O)[C@H](CCc2ccc(C(F)(F)F)c(Cl)c2)NC(=O)CN(C)C(=O)[C@H](Cc2ccc(C(F)(F)F)cc2)N(CC2CC2)C(=O)[C@@H]2CCN2C(=O)[C@H](C)N(C)C1=O [PP0108] ([NMeL]I[NMeA][Aze][X31][Sar][hPhe(3-Cl-4-CF3)]P[Ac5c][NMeGly(cPent)][NMeD]-Morpholide; lactam N-11)
NRAS/KRAS (ratio of KD for GDP-bound NRAS wild-type to KD for KRAS) [1]: C (A compound having a KD ratio of 0.1 or more and less than 3 is denoted as C)
HRAS/KRAS (ratio of KD for GDP-bound HRAS wild-type to KD for KRAS) [2]: C (A compound having a KD ratio of 0.1 or more and less than 3 is denoted as C)

CCC[C@H]1C(=O)N[C@@H]([C@@H](C)CC)C(=O)N(C)CC(=O)N(C)[C@H]2C/C=C\CCN(C2=O)[C@@H](Cc2ccc(C(F)(F)F)cc2)C(=O)N(C)CC(=O)N[C@@H](CCc2cc(F)c(C(F)(F)F)c(F)c2)C(=O)N2CC(F)(F)C[C@H]2C(=O)NC2(CC(C)(C)C2)C(=O)N(C)[C@@H](C2CCCC2)C(=O)N(C)[C@H](C(=O)N(C)C)CC(=O)N1C [PP1711]
NRAS/KRAS (ratio of KD value for NRAS to KD value for KRAS) ([1]; KD ratio): A (a compound having 10 or more and less than 20 is denoted as A)
HRAS/KRAS (ratio of KD value for HRAS to KD value for KRAS) ([2]; KD ratio): B (a compound having 3 or more and less than 10 is denoted as B)

CCCN1C(=O)CN(C)C(=O)[C@@H]2CCN2C(=O)[C@H]([C@@H](C)CC)NC(=O)[C@H](CC(C)C)N(C)C(=O)C[C@@H](C(=O)N2CCOCC2)NC(=O)[C@H](C2CCCC2)N(C)C(=O)C2(CCCC2)NC(=O)[C@@H]2CCCN2C(=O)[C@H](CCc2ccc(C(F)(F)F)c(Cl)c2)NC(=O)CN(C)C(=O)[C@@H]1Cc1ccc(C(F)(F)F)cc1 [PP0337] ([NMeL]I[Aze][Sar][NPrPhe(4-CF3)][Sar][hPhe(3-Cl-4-CF3)]P[Ac5c][NMeGly(cPent)]D-Morpholide; lactam N-11)
NRAS/KRAS (ratio of KD for GDP-bound NRAS wild-type to KD for KRAS) [1]: B (a compound having 3 or more and less than 10 is denoted as B)
HRAS/KRAS (ratio of KD for GDP-bound HRAS wild-type to KD for KRAS) [2]: B (a compound having 3 or more and less than 10 is denoted as B)
